The values that follow come from publication PMC5720837, “Identification of a 4-fluorobenzyl L-valinate amide benzoxaborole (AN11736) as a potential development candidate for the treatment of Animal African Trypanosomiasis (AAT)” (Bioorganic & Medicinal Chemistry Letters, 2018).

Data set [1] can be described thus: In vitro metabolic stability, mouse S9. The conditions noted are these: S9 fraction. In kind it is in vitro ADME. As to the method:
(§1) Selected compounds were screened in both mouse and bovine in vitro metabolic stability assays (mouse S9 and bovine S9), as summarized in Table 2. These two species were chosen because the primary in vivo assays were conducted in mice, and the target animal of this research program is cattle. […] We evaluated the efficacy of selected compounds in two in vivo mouse models of infection, against T. congolense and T. vivax, respectively. Mice were infected with either 1 × 10^5 T. c. parasites or 1 × 10^4 T. v. parasites, and then treated with a test compound via intraperitoneal administration for 1, 2 or 4 consecutive days. The mice were then monitored for the presence of parasitemia for up to 60 days post treatment.[7] We tested in T. c. model first, then followed up with T. v. for interesting compounds. […] We selected compound 5 (AN11736) to progress to exploratory studies to determine the efficacy and safety in a preliminary formulation against induced infections of T. vivax and T. congolense in cattle.[8]

For data set [2], the system named is T. v. parasites (STIB719/ILRAD560 strain). Briefly: In vivo mouse model of T. vivax infection. Also noted: species or system NMRI female mice. The following applies: for Efficacy in mouse model T. v., n/m (mice survived / total mice in group): intraperitoneal, monitored 60 days post treatment; for curative efficacy in the T. v.-infected mouse model: single dose of 10 mg/kg, IP. As to the method: as §1
(§2) [7] Methods for testing compound efficacy in mouse models: In vivo mouse efficacy studies were performed at the Swiss TPH, using established mouse models of infection for T. c. and T. v. NMRI female mice were independently infected either with 1 × 10^5T. c. parasites/mouse (STIB736/IL1180 strain) or 1 × 10^4T. v. parasites/mouse (STIB719/ILRAD560 strain) using an intraperitoneal route. Parasitemia was allowed to develop over 7 days (T. c.) or 3 days (T. v.), respectively, before treatment was administered. Compounds were administered via intraperitoneal injection in 10% DMSO/water. Four mice were used per treatment group. Mice were monitored for the presence of trypanosomes, via tail blood examination microscopically with twice-per-week parasitemia checks for 60 days post treatment. Parasitemia was graded on a scale of 0–3, with 0 indicating no trypanosomes seen in 20 fields of view, 1 indicating the presence of 1–5 trypanosomes per field, 2 indicating the presence of 6–20 trypanosomes per field and 3 indicating greater than 20 trypanosomes per field. Mice scoring 2 or 3 were immediately euthanized. After 60 days, aparasitemic mice were considered cured. Untreated control mice survive on average for 10 and 6 days post infection for T. c. and T. v., respectively. All in vivo mouse experiments were conducted in accordance with the strict guidelines set out by the Swiss Federal Veterinary Office, under the ethical approval of license number #2813.

The test system of data set [3] is T. c. parasites (STIB736/IL1180 strain). Briefly: In vivo mouse model of T. congolense infection. Also noted: species or system NMRI female mice. The conditions noted are these: for Efficacy in mouse model T. c., n/m (mice survived / total mice in group): intraperitoneal, monitored 60 days post treatment. The method, then: as §1, §2
The nature of data set [4]: In vitro metabolic stability, bovine S9. The conditions noted are these: S9 fraction. It is filed as in vitro ADME. As to the method: as §1
Data set [5] deals with Trypanosoma vivax (T. vivax STIB719/ILRAD 560 strain), bloodstream form. Briefly: Whole cell Alamar Blue assay, T. vivax (48 h ex vivo). The following applies: Trypanosoma vivax; T. vivax STIB719/ILRAD 560, 48 h ex vivo Alamar Blue assay. It is filed as cell-based. The method, then:
(§3) Activity of compounds 1–71 against T. congolense and T. vivax was determined using the whole cell assays as described ^6 and their IC50 values are summarized in Table 1.
(§4) [6] Assay methods for determination of T. c. and T. v. […] Culture media consisted of complete HMI-9 (IMDM) with 20% bovine serum. To ensure log growth phase, trypanosomes were sub-cultured at appropriate dilutions every 2–3 days. Bloodstream form Trypanosoma vivax (T. vivax) cannot be cultured axenically, therefore trypanosomes (T. vivax STIB719/ILRAD 560 strain) were harvested from a highly parasitemia mouse via cardiac puncture and used directly in the ex vivo drug sensitivity assay on the same day. […] Parasite starting concentrations of 2 × 10^5 (T. c.) and 4 × 10^5 (T. v.) were calculated respectively, using a cell analyzer system or haemo-cytometer, followed by quantification at 536 nm excitation and 588 nm emission wavelengths using a […] reader. Test compounds were prepared as 10 mg/mL DMSO stocks for each assay run. Compounds were assayed in at least three separate, independent test runs and an 11-point dilution curve was used to determine the IC50 values. Data points were averaged to generate sigmoidal dose-response curves and IC50 values were determined using Softmax Pro 5.2 software.

For data set [6], the system named is Trypanosoma congolense (T. congolense IL-3000 strain), bloodstream form. Briefly: Whole cell Alamar Blue assay, T. congolense (72 h in vitro). In kind it is cell-based. The following applies: Trypanosoma congolense, 72 h, T. congolense IL-3000, 72 h in vitro Alamar Blue assay. As to the method:
as §3, §4
(The colour change of resazurin is a common sign of viable cells or microbes.)

For the compound `Cc1c(C(=O)N[C@H](C(=O)OCc2ccc(F)c(F)c2)C(C)C)ccc2c1B(O)OC2` [Compound 8], the values for the microsomal CLint in data set [1] and in data set [4] were 7.9 µL/min/mg and 5.6 µL/min/mg, respectively. In data set [2] (1 × 10 mg/kg), the “Efficacy in mouse model T. v., n/m (mice survived / total mice in group)” value is on record as 4/4 (1 × 10). Also, the “curative efficacy in the T. v.-infected mouse model” value in data set [2] amounted to 100%. In addition, the “Efficacy in mouse model T. c., n/m (mice survived / total mice in group)” value in data set [3] (1 × 5 mg/kg) is on record as 0/4; in data set [3] (1 × 10 mg/kg), 4/4. Moreover, the “cure of T. c.-infected mice” value in data set [3] (single 5 mg/kg dose, IP) was “unable to cure”. Also, the IC50 – broadly, the concentration at which inhibition is half-maximal – in data set [5] was 0.07 nM; in data set [6], 0.28 nM.

`Cc1c(C(=O)N[C@H](C(=O)OCC2CCOCC2)C(C)C)ccc2c1B(O)OC2` [Compound 63]: the microsomal CLint (commonly a measure of how fast metabolising enzymes remove a compound, apart from limits set by blood flow) in data set [1] turned out to be 0.9 µL/min/mg; in data set [4] it was 1.5 µL/min/mg. Further, the “Efficacy in mouse model T. v., n/m (mice survived / total mice in group)” value in data set [2] (1 × 10 mg/kg) is recorded as 4/4 (1 × 10). For the same compound, in data set [3] (1 × 10 mg/kg), the “Efficacy in mouse model T. c., n/m (mice survived / total mice in group)” value is recorded as 1/4 (1 × 10). Further, the IC50 turned out to be 0.09 nM in data set [5] and 0.39 nM in data set [6].

For the compound `Cc1c(C(=O)N[C@H](C(=O)OCc2cccc(CN(C)C)c2)C(C)C)ccc2c1B(O)OC2` [Compound 51], the microsomal CLint in data set [1] came out at 1.8 µL/min/mg; in data set [4], 5 µL/min/mg. Further, the “Efficacy in mouse model T. v., n/m (mice survived / total mice in group)” value in data set [2] (1 × 10 mg/kg) is reported as 4/4 (1 × 10). Further, the “Efficacy in mouse model T. c., n/m (mice survived / total mice in group)” value in data set [3] (1 × 10 mg/kg) is reported as 0/4 (1 × 10). Moreover, the IC50 in data set [5] came out at 0.21 nM; in data set [6], 0.25 nM.

On to `Cc1c(C(=O)N[C@H](C(=O)OCc2ccc(OCCN3CCCC3)cc2)C(C)C)ccc2c1B(O)OC2` [Compound 49], for which the microsomal CLint in data set [1] is 1.5 µL/min/mg; in data set [4] it was 4 µL/min/mg. Moreover, the “Efficacy in mouse model T. v., n/m (mice survived / total mice in group)” value in data set [2] (1 × 10 mg/kg) is recorded as 4/4 (1 × 10). Also, in data set [2], the “curative efficacy in the T. v.-infected mouse model” value was determined as 100%. The “Efficacy in mouse model T. c., n/m (mice survived / total mice in group)” value in data set [3] (1 × 10 mg/kg) is 2/4 (1 × 10). In addition, in data set [3] (single dose of 10 mg/kg, IP), the “curative efficacy in the T. c.-infected mouse model” value is reported as no less than 50%. Also, the IC50 in data set [5] is 68 nM; in data set [6], 0.39 nM.

Regarding `Cc1c(C(=O)N[C@H](C(=O)OCc2ccc(C(F)(F)F)nc2)C(C)C)ccc2c1B(O)OC2` [Compound 33], the microsomal CLint in data set [1] turned out to be 6.3 µL/min/mg; in data set [4], 2 µL/min/mg. The “Efficacy in mouse model T. v., n/m (mice survived / total mice in group)” value in data set [2] (1 × 10 mg/kg) is 4/4 (1 × 10). Further, in data set [2], the “curative efficacy in the T. v.-infected mouse model” value turned out to be 100%. Further, the “Efficacy in mouse model T. c., n/m (mice survived / total mice in group)” value in data set [3] (1 × 10 mg/kg) is on record as 3/4 (1 × 10). The IC50 was 26 nM in data set [5] and 0.28 nM in data set [6].

Take `Cc1c(C(=O)N[C@H](C(=O)OCc2ccccc2)C(C)C)ccc2c1B(O)OC2` [Compound 4]: the “Efficacy in mouse model T. v., n/m (mice survived / total mice in group)” value in data set [2] (1 × 10 mg/kg) is 4/4; in data set [2] (2 × 10 mg/kg), 5/5. Further, in data set [3] (2 × 10 mg/kg), the “Efficacy in mouse model T. c., n/m (mice survived / total mice in group)” value is on record as 4/5 (2 × 10). Besides, the values for the IC50 in data set [5] and in data set [6] were 0.79 nM and 0.46 nM, respectively.

On to `CC(C)[C@H](NC(=O)c1ccc2c(c1F)B(O)OC2)C(=O)OCc1ccc(F)cc1` [Compound 21], for which the microsomal CLint in data set [1] and in data set [4] was less than 1 µL/min/mg in each case. Also, in data set [2] (2 × 10 mg/kg), the “Efficacy in mouse model T. v., n/m (mice survived / total mice in group)” value is 4/4 (2 × 10). The “Efficacy in mouse model T. c., n/m (mice survived / total mice in group)” value in data set [3] (2 × 10 mg/kg) is recorded as 1/4 (2 × 10). This compound showed an IC50 in data set [6] of 28 nM.

As to `Cc1c(C(=O)N[C@H](C(=O)OC2CCC(F)(F)CC2)C(C)C)ccc2c1B(O)OC2` [Compound 70], the results for the microsomal CLint in data set [1] and in data set [4] were 1.5 µL/min/mg and 0.3 µL/min/mg, respectively. The “Efficacy in mouse model T. v., n/m (mice survived / total mice in group)” value in data set [2] (1 × 10 mg/kg) was 4/4 (1 × 10). In addition, the “Efficacy in mouse model T. c., n/m (mice survived / total mice in group)” value in data set [3] (1 × 10 mg/kg) is 1/4 (1 × 10). Further, the IC50 in data set [5] was 2.28 nM; in data set [6], 0.34 nM.

As for `Cc1c(C(=O)N[C@H](C(=O)OC2CCOCC2)C(C)C)ccc2c1B(O)OC2` [Compound 69], the microsomal CLint in data set [1] is 0.7 µL/min/mg; in data set [4], 0.6 µL/min/mg. Also, in data set [2] (1 × 10 mg/kg), the “Efficacy in mouse model T. v., n/m (mice survived / total mice in group)” value is 1/4 (1 × 10). In data set [3] (1 × 10 mg/kg), the “Efficacy in mouse model T. c., n/m (mice survived / total mice in group)” value is on record as 1/4 (1 × 10). Moreover, the figures for the IC50 in data set [5] and in data set [6] were 1.6 nM and 0.47 nM, respectively.
